The target of the experiment is T1, human HSL (Homo sapiens, UniProt Q05469).
T1 construct: overlapping PCR to generate a full length human HSL ORF with a 3′-His6 tag; His6 (C); made in house; host or cells: High 5 insect cells (baculovirus, pFast-BAC)
T1 sequence (Q05469 1-1076): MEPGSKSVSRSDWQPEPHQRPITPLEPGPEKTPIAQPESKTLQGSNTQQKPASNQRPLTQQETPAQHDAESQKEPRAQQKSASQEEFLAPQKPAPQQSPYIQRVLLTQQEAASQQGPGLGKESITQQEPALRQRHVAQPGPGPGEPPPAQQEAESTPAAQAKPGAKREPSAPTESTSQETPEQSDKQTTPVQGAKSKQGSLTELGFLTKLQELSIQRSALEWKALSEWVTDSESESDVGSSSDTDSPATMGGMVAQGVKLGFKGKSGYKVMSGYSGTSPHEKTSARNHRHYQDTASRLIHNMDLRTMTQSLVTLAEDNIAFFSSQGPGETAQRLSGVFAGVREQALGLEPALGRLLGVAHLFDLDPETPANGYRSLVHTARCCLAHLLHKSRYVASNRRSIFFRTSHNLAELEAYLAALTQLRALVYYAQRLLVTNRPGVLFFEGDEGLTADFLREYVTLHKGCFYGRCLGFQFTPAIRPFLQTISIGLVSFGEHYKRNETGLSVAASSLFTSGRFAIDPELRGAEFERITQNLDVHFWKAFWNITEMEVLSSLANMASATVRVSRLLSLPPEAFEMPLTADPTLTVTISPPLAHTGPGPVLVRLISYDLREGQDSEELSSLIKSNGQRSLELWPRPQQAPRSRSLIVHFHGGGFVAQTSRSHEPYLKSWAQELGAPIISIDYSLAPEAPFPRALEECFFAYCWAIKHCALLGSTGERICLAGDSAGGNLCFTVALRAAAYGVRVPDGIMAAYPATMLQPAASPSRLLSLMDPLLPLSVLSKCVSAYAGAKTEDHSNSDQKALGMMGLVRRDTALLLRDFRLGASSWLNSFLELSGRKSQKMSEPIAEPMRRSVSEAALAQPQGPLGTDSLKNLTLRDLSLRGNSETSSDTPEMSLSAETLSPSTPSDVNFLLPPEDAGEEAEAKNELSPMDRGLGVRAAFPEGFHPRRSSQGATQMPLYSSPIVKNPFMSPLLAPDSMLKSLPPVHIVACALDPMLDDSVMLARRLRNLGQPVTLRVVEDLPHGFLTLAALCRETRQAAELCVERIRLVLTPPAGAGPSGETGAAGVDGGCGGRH
In words: Human Hormone-Sensitive Lipase (HSL) Enzyme Inhibition Assay. In kind it is biochemical. The conditions noted are these: colorimetric assay, 2,3-dimercapto-1-propanol tributyrate (DMPT) substrate, 37° C. for 20 minutes, absorbance at 405 nm; read-out: HSL hum IC50. The procedure:
Production of Human Full Length Hormone Sensitive Lipase-His^6
1) Cloning: cDNA was prepared from commercial human brain polyA-+ RNA and used as a template in overlapping PCR to generate a full length human HSL ORF with a 3′-His6 tag. This full length insert was cloned into the pFast-BAC vector and the DNA-sequence of several single clones was verified. DNA from a correct full length clone with the 3′His6 tag was used to transform the E. coli strain DH10BAC. Resulting bacmid DNA was used to generate a titered baculovirus stock for protein generation.
Cells were thawed. […] was done at 3×30 sec., Lubrol PX was added to 0.2% final concentration followed by stirring for 15 min. at 4° C. and centrifugation at 25 k×g, 60 min., 4° C. […] Supernatant was removed, the resin washed in the centrifuge vessel using 5 volumes of Base Buffer containing 0.2% Lubrol PX. Centrifugation was done again, then the supernatant discarded. The resin wass poured onto a 0.8 μm membrane in a disposable filter unit (Nalge 450-0080), and washed with 5 volumes of Base Buffer containing 0.2% Lubrol PX. It was then washed with 30 volumes of Base Buffer containing 60 mM imidazole pH 7.5 at 4° C. The protein was eluated with 5 volumes of 25 mM Tris-Cl, 300 mM NaCl, 200 mM imidazole, 10 mM 2-mercaptoethanol, pH 7.5 at 4° C. by tumbling resin with buffer end-over-end, 30 min., 4° C. The resin was captured on a 0.2 μm membrane disposable filter unit (Millipore SCGP U02 RE) and the eluate collected in the reservoir. The eluate was concentrated using a 30 k MWCO centrifugal filter device (Sartorius Vivascience Vivacell 100, VC1022), to 20 ml. It was then dialyzed overnight at 4° C., two times against 2 L of 10% glycerol, 25 mM Tris-Cl, 300 mM NaCl, 0.2 mM EDTA, 0.2 mM DTT, pH 7.5 at 4° C. The protein was filtered using a 0.22 μm disposable filter unit (Millipore SCGP00525). The protein concentration was calculated from absorbance at 280 nm, using 280=0.67 cm-1 mg-1. […] The protein was stored at −80° C.
Human Hormone-Sensitive Lipase (HSL) Enzyme Inhibition Assay:
HSL enzyme activity was measured by a colorimetric assay using 2,3-dimercapto-1-propanol tributyrate (Aldrich, St. Louis, Mo.) as a substrate. Typically, 1.5 mM 2,3-dimercapto-1-propanol tributyrate (DMPT) in 100 mM MOPS, pH 7.2, 0.2 mg/ml fatty acid-free BSA was prepared by sonication at 4° C. to homogenous suspension. Test compounds (2 mM stock in DMSO) were diluted 3 fold in series in DMSO. Compound solutions were diluted 24 fold in 1.5 mM DMPT containing solution and 18 ul per well was added to 384-well microplates (Corning Costar). Twelve microliters per well of human HSL (15 ug/ml) was added and the reaction mixture was incubated at 37° C. for 20 minutes. Six microliters of 12 mM dithio-bis-(2-nitrobenzoic acid) (DTNB) in DMSO plus 1.2% SDS and 0.6% Triton X-100 were added and the mixture was incubated at room temperature for 15 minutes. Product production was monitored by reading absorbance at 405 nm on an Envision Reader (PerkinElmer Life and Analytical Sciences, Shelton, Conn.).

The values below come from patent US8329904B2, “Azacyclic derivatives” (Hoffmann-La Roche Inc., priority 2009, dated 2012).

What is called IC50 is the concentration at which inhibition is half-maximal. `CCc1ccc(N2CCC3(CCN(S(=O)(=O)c4ccccc4Cl)CC3)C2=O)cc1` [Example 17, 8-(2-Chloro-benzenesulfonyl)-2-(4-ethyl-phenyl)-2,8-diaza-spiro[4.5]decan-1-one]: the IC50 was 30 nM. `CC(C)CS(=O)(=O)N1CCC2(CCN(c3ccc(OC(F)(F)F)cc3)C2=O)CC1` [Example 18, 8-(2-Methyl-propane-1-sulfonyl)-2-(4-trifluoromethoxy-phenyl)-2,8-diaza-spiro[4.5]decan-1-one]: the IC50 amounted to 80 nM. As to `CC(C)(C)CS(=O)(=O)N1CCC2(CCN(c3ccc(OC(F)(F)F)cc3)C2=O)CC1` [Example 19, 8-(2,2-Dimethyl-propane-1-sulfonyl)-2-(4-trifluoromethoxy-phenyl)-2,8-diaza-spiro[4.5]decan-1-one], the IC50 was 40 nM. For `CCc1ccc(N2CCC3(CCN(C(=O)CC(C)(C)C)CC3)C2=O)cc1` [Example 20, 8-(3,3-Dimethyl-butyryl)-2-(4-ethyl-phenyl)-2,8-diaza-spiro[4.5]decan-1-one] the value was 240 nM; for `CCc1ccc(N2CCC3(CCN(S(=O)(=O)N4CCOCC4)CC3)C2=O)cc1` [Example 21, 2-(4-Ethyl-phenyl)-8-(morpholine-4-sulfonyl)-2,8-diaza-spiro[4.5]decan-1-one], 270 nM; for `CC(C)CS(=O)(=O)N1CCC2(CCN(c3ccc(OC(C)C)cc3)C2=O)CC1` [Example 23, 2-(4-Isopropoxy-phenyl)-8-(2-methyl-propane-1-sulfonyl)-2,8-diaza-spiro[4.5]decan-1-one], 160 nM. Turning to `CCc1ccc(N2CCC3(CCN(S(=O)(=O)CC(C)C)CC3)C2=O)cc1` [Example 24, 2-(4-Ethyl-phenyl)-8-(2-methyl-propane-1-sulfonyl)-2,8-diaza-spiro[4.5]decan-1-one], the IC50 was 100 nM. As for `O=C1N(c2ccc(OCC(F)(F)F)cc2)CCC12CCN(S(=O)(=O)c1ccccc1)CC2` [Example 26, 8-Benzenesulfonyl-2-[4-(2,2,2-trifluoro-ethoxy)-phenyl]-2,8-diaza-spiro[4.5]decan-1-one], the IC50 stood at 60 nM. As for `O=C1N(c2ccc(OC(F)(F)F)cc2)CCC12CCN(S(=O)(=O)c1cccs1)CC2` [Example 28, 8-(Thiophene-2-sulfonyl)-2-(4-trifluoromethoxy-phenyl)-2,8-diaza-spiro[4.5]decan-1-one], the IC50 worked out at 40 nM. Take `CCc1ccc(N2CCC3(CCN(S(=O)(=O)c4cccs4)CC3)C2=O)cc1` [Example 29, 2-(4-Ethyl-phenyl)-8-(thiophene-2-sulfonyl)-2,8-diaza-spiro[4.5]decan-1-one]: the IC50 came to 50 nM. Turning to `CCc1ccc(N2CCC3(CCN(S(=O)(=O)CCC(F)(F)F)CC3)C2=O)cc1` [Example 30, 2-(4-Ethyl-phenyl)-8-(3,3,3-trifluoro-propane-1-sulfonyl)-2,8-diaza-spiro[4.5]decan-1-one], the 50% inhibitory concentration (IC50) was found to be 360 nM. As to `CCCc1ccc(N2CCC3(CCN(C(=O)CC(C)(C)C)CC3)C2=O)cc1` [Example 31, 8-(3,3-Dimethyl-butyryl)-2-(4-propyl-phenyl)-2,8-diaza-spiro[4.5]decan-1-one], the 50% inhibitory concentration (IC50) was determined as 80 nM. For the compound `CCc1ccc(N2CCC3(CCN(S(=O)(=O)CC(C)(C)C)CC3)C2=O)cc1` [Example 32, 8-(2,2-Dimethyl-propane-1-sulfonyl)-2-(4-ethyl-phenyl)-2,8-diaza-spiro[4.5]decan-1-one], the half-inhibitory concentration (IC50) came out at 80 nM. As to `O=C1N(c2ccc(C3CC3)cc2)CCC12CCN(S(=O)(=O)c1ccccc1Cl)CC2` [Example 33, 8-(2-Chloro-benzenesulfonyl)-2-(4-cyclopropyl-phenyl)-2,8-diaza-spiro[4.5]decan-1-one], the IC50 amounted to 30 nM. Take `CSc1ccc(N2CCC3(CCN(S(=O)(=O)c4ccccc4Cl)CC3)C2=O)cc1` [Example 34, 8-(2-Chloro-benzenesulfonyl)-2-(4-methylsulfanyl-phenyl)-2,8-diaza-spiro[4.5]decan-1-one]: the IC50 turned out to be 100 nM.

For `CC(C)(C)CC(=O)N1CCC2(CC1)CCN(c1ccc(C3CC3)cc1)C2=O` [Example 35, 2-(4-Cyclopropyl-phenyl)-8-(3,3-dimethyl-butyryl)-2,8-diaza-spiro[4.5]decan-1-one], the IC50 worked out at 170 nM.

On to `O=C1N(c2ccc(C3CC3)cc2)CCC12CCN(S(=O)(=O)c1cccs1)CC2` [Example 36, 2-(4-Cyclopropyl-phenyl)-8-(thiophene-2-sulfonyl)-2,8-diaza-spiro[4.5]decan-1-one], for which the half-maximal inhibitory concentration (IC50) turned out to be 50 nM. For `O=C(CC1CCCC1)N1CCC2(CC1)CCN(c1ccc(C3CC3)cc1)C2=O` [Example 37, 8-(2-Cyclopentyl-acetyl)-2-(4-cyclopropyl-phenyl)-2,8-diaza-spiro[4.5]decan-1-one], the IC50 was found to be 220 nM. `O=C1N(c2ccc(C3CC3)cc2)CCC12CCN(S(=O)(=O)Cc1ccccc1)CC2` [Example 38, 2-(4-Cyclopropyl-phenyl)-8-phenylmethanesulfonyl-2,8-diaza-spiro[4.5]decan-1-one]: the IC50 is 60 nM. As for `CCCS(=O)(=O)N1CCC2(CCN(c3ccc(C4CC4)cc3)C2=O)CC1` [Example 39, 2-(4-Cyclopropyl-phenyl)-8-(propane-1-sulfonyl)-2,8-diaza-spiro[4.5]decan-1-one], the IC50 came to 200 nM. With `CC(C)(C)CC(=O)N1CCC2(CC1)CCN(c1ccc(CC(F)(F)F)cc1)C2=O` [Example 40, 8-(3,3-Dimethyl-butyryl)-2-[4-(2,2,2-trifluoro-ethyl)-phenyl]-2,8-diaza-spiro[4.5]decan-1-one], the half-maximal inhibitory concentration (IC50) was determined as 80 nM. On to `CCc1ccc(N2CCC3(CCN(S(=O)(=O)c4ccc(C)s4)CC3)C2=O)cc1` [Example 41, 2-(4-Ethyl-phenyl)-8-(5-methyl-thiophene-2-sulfonyl)-2,8-diaza-spiro[4.5]decan-1-one], for which the IC50 was found to be 60 nM. Turning to `Cc1ccc(S(=O)(=O)N2CCC3(CCN(c4ccc(OC(F)(F)F)cc4)C3=O)CC2)s1` [Example 42, 8-(5-Methyl-thiophene-2-sulfonyl)-2-(4-trifluoromethoxy-phenyl)-2,8-diaza-spiro[4.5]decan-1-one], the IC50 came to 40 nM.
